From patent US20220242846A1, “ISOINDOLINONE COMPOUNDS” (Monte Rosa Therapeutics AG, priority 2019, published 2022)

Tests used:
[1] = system: Human mammary epithelial cells (HMEC) engineered to express EGFP alone (non myc); assay: 3D spheroid assay, non myc-HMEC (CellTiterGlo3D viability); format: cell-based; conditions: 120 h, 3D spheroids, 5 days with compound, read-out: Code: EC50 value in the non myc-HMEC assay
Description: (§1) 3D Spheroid Experiments—HMEC
(§2) Human mammary epithelial cells (HMEC) were engineered to express either c-myc tagged with EGFP or EGFP alone (non myc) (analogous but distinct from Kessler J D et al, Science. 2012 Jan. 20; 335(6066):348-53. doi: 10.1126/science.1212728; Hsu T Y et al, Nature. 2015 Sep. 17; 525(7569):384-8. doi: 10.1038/nature14985). The engineered cells were seeded at 1000 (myc) or 4000 (non myc) cells/well in a 384 ultra-low attachment plate in a total volume of 40 µL, HMEC cell culture media (DMEM/F12+10% HI-FBS+15 mM HEPES+0.5 ug/ml Hydrocortisone+10 ug/ml Insulin+20 ng/ml EGF). Plates were spun at 1200 rpm for 5 minutes at room temperature to ensure that cells have gathered in the middle of the well and incubated at 37° C. for 48 hrs before firing with compounds. On Day 2 (48 h post seeding) cells were imaged (brightfield and EGFP fluorescence) using the Celigo imaging cytometer prior to firing compounds. For primary screens, compounds were added at three concentrations (1.25, 10 and 30 uM) in a volume of 120 nL using the ECHO acoustic dispenser and spun at 2000 rpm for 2 minutes at room temperature before incubating at 37° C. for 5 days. […] On Day 7, prior to measuring cell viability using CellTiterGlo3D, cells were imaged (brightfield and EGFP fluorescence) on the Celigo imaging cytometer. The CellTiterGlo3D reagent is added at 30uL/well and incubated at room temperature for 30mins After 30mins of incubation, luminescence readings were recorded using the Perkin Elmer EnVision reader.

[2] = system: Human mammary epithelial cells (HMEC) engineered to express c-myc tagged with EGFP; assay: 3D spheroid assay, myc-HMEC (CellTiterGlo3D viability); format: cell-based; conditions: Homo sapiens, HMEC, 120 h, 3D spheroids, 5 days with compound, read-out: Code: EC50 value in the myc-HMEC assay
Description: as §1, §2

GSPT1 = GSPT1 (Homo sapiens, UniProt P15170+Q96SW2); assay: Immunofluorescence assay for GSPT1 degradation in CAL-51 cells; format: cell-based; parameters: CAL-51 cells were purchased from DSMZ (cat. Number ACC302); endogenous in cells; host or cells: CAL-51 (DSMZ ACC302); conditions: compound treatment 6 hours, read-out: Code: activity for GSPT1 degradation (DC50)
Description: CAL-51 cells were purchased from DSMZ (cat. Number ACC302), sub-cultured in 90% Dulbecco's MEM (4.5 g/L glucose, Gibco 11965) +10% heat inactivated FBS (BioConcept, 2-01F136I) and incubated at 37° C., 5% CO2. For the assay, imaging microtiterplate Cell Carrier 96 Ultra (Perkin Elmer 6055302) were pre-coated with Fibronectin (Sigma F085, 300 at 0.2 μg/ml) in PBS (1000, Gibco 14190) for 45 min at room temperature, rinsed with PBS and CAL-51 cells (30K cells/well) were plated and let to adhere overnight. Cells were treated with compounds typically using a serial dilution ranging from 30 μM to 0.1 nM for 6 hours. Compounds were stored at 10 mM DMSO stocks. Vehicle (DMSO), positive (CC-885, 10 μM) and rescue controls (positive control plus 0.2 μM bortezomib) were also included at this stage. Cells were subsequently rinsed with PBS and fixed in 10% Formalin solution (50 μl, Sigma HT5011)) for 20 mins at room temperature. Following three consecutive PBS washes (100 μl), cells were permeabilized in 0.1% Triton X-100 in PBS (Sigma 93443, 50 μl) for 15 mins at room temperature. Following three further PBS washes, 50 μl blocking buffer (1% BSA, Sigma A4503, in PBS) was added for 45 min for signal-to-noise reduction. Primary antibody (human GSPT1, Sigma HPA052488) was diluted in blocking buffer (dil. 1/300, 35 μl/well) and incubated with the cells overnight at 4° C. After three PBS washes, Alexa-fluor 488 coupled secondary antibodies (Invitrogen, A32731, dil. 1/1000), Alexa-fluor 647-Phalloïdin (Invitrogen, A22287, dil. 1/200) and DAPI (Thermo, #62248, dil.1/1000) were diluted in blocking buffer and incubated with the samples for 2 hours at room temperature. After three final PBS washes, samples were conserved in 1000 PBS in the dark, until measurement. Image acquisition was performed on the Operetta High-Content Imager (Perkin-Elmer). Fluorescence intensity of Alexa-Fluor 488 (GSPT1), Alexa-Fluor 647 (Actin) and DAPI (Nucleus) were measured. For the determination of GSPT1 DC50 values, a custom algorithm implemented in the PerkinElmer image analysis software Harmony-Acapella® was developed. After user-defined setting of adjustment parameters, the analysis was run identically without human intervention for all image fields. DAPI staining of the nuclei was used to determine the location of cells using standard nuclei detection modules. Segmentation artifacts were removed by threshold-based filters for area, roundness and intensity. The outline of the cells was determined analogously from the sum of the normalized, smoothed DAPI and Actin channel, starting from each nucleus. The Alexa-Fluor 488 (GSPT1) signal intensity in each cell was finally measured, in order to obtain a Mean intensity per cell. GSPT1 degradation (DC50) was calculated after normalization to controls and data import in CDD vault Database, using non-linear regression. Activity for GSPT1 Degradation Table 3 assigns each compound a code indicating the ability for GSPT1 degradation: A, B or C. According to the code, A represents a DC50 value of ≤100 nM, B represents a DC50 value >100 nM and ≤300 nM and C represents a DC50 value of >300 nM.

[3] = biological target: T1, Full length wild-type cereblon CRBN (Homo sapiens, UniProt Q96SW2); assay: Fluorescence polarization (FP) assay indicating cereblon binding; conditions: CRBN 80.0 nM, fluorescent probe 5 nM, FP measured after 12 hours; read-out: rFP IC50
T1 construct: Full length wild-type cereblon CRBN (80.0 nM, 10 μL) was incubated in assay buffer
Excerpt: Protocol for Fluorescent Polarization Assay
Compound activity was monitored in a fluorescence polarization (FP) homogeneous assay using 1-[5-({2-[2-(2-{[2-(2,6-dioxopiperidin-3-yl)-1,3-dioxo-2,3-dihydro-1H-isoindol-4-yl]oxy}acetamido)ethoxy]ethyl}carbamoyl)pentyl]-3,3-dimethyl-2-[(1E,3E)-5-[(2E)-1,3,3-trimethyl-5-sulfo-2,3-dihydro-1H-indol-2-ylidene]penta-1,3-dien-1-yl]-3H-indol-1-ium-5-sulfonate as a fluorescent probe. Unless otherwise stated, all reagents were purchased from Sigma Aldrich. Enzymatic reactions were conducted in Perkin-Elmer Black 384 well ProxiPlate Plus (catalogue no. 6008269) in 10 μL total volume. Full length wild-type cereblon CRBN (80.0 nM, 10 μL) was incubated in assay buffer containing 20 mM HEPES (pH 8.0), […], 0.5 mM TCEP and 0.05% Tween 20 in the presence or absence of compound (300 nL). Inhibitors were stored as 10 mM DMSO stocks in an inert environment (low humidity, dark, low oxygen, room temperature) using the Storage Pod System. Compounds and DMSO were dispensed using the Echo E5XX (Labcyte Inc. USA) to give concentrations from 300 to 0.937 or 3000 to 9.3 nM in a 12 data point curve. […] Following incubation at room temperature for […], the assay was initiated by dispensing the probe to a final concentration of 5 nM (2.5 nL of a 20 μM stock) using the Echo E5XX. FP was measured after a period of 12 hours using a Pherastar plate reader (BMG Labtech, Germany) exciting at 590 nm and measuring the amount of parallel and perpendicular light at 675 nm. The FP signal was subsequently normalized to the no-compound control (i.e., DMSO). Analysis and IC50 values were derived using Dotmatics (Dotmatics UK) software.

Sequence of GSPT1 (P15170 whole entry): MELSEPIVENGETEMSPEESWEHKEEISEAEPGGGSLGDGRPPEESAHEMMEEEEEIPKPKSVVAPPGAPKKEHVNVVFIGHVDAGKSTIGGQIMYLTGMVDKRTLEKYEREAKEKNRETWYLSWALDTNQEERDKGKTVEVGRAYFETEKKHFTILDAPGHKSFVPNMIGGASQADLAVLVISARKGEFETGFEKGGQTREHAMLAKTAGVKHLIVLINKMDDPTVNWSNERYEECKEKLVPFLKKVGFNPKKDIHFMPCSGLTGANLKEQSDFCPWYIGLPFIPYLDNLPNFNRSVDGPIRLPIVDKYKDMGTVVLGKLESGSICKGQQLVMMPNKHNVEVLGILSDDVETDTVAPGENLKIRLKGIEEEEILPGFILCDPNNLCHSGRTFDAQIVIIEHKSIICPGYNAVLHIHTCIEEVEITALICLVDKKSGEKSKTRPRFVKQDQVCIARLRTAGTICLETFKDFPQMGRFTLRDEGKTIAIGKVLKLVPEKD
Sequence of GSPT1 (Q96SW2 whole entry): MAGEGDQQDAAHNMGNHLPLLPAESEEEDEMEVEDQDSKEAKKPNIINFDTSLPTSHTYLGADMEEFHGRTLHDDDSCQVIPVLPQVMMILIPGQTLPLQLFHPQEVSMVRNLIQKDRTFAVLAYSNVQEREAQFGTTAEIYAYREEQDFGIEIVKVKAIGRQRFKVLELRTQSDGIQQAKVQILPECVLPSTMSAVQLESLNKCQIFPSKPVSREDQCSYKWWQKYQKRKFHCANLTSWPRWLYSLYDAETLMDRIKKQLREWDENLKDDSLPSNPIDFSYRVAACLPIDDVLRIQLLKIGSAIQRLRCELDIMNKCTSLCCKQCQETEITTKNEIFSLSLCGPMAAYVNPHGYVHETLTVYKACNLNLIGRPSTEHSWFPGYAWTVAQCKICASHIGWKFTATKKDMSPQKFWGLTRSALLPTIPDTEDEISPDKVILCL
Sequence of GSPT1 (Q16531 2-1140 partner limits assumed): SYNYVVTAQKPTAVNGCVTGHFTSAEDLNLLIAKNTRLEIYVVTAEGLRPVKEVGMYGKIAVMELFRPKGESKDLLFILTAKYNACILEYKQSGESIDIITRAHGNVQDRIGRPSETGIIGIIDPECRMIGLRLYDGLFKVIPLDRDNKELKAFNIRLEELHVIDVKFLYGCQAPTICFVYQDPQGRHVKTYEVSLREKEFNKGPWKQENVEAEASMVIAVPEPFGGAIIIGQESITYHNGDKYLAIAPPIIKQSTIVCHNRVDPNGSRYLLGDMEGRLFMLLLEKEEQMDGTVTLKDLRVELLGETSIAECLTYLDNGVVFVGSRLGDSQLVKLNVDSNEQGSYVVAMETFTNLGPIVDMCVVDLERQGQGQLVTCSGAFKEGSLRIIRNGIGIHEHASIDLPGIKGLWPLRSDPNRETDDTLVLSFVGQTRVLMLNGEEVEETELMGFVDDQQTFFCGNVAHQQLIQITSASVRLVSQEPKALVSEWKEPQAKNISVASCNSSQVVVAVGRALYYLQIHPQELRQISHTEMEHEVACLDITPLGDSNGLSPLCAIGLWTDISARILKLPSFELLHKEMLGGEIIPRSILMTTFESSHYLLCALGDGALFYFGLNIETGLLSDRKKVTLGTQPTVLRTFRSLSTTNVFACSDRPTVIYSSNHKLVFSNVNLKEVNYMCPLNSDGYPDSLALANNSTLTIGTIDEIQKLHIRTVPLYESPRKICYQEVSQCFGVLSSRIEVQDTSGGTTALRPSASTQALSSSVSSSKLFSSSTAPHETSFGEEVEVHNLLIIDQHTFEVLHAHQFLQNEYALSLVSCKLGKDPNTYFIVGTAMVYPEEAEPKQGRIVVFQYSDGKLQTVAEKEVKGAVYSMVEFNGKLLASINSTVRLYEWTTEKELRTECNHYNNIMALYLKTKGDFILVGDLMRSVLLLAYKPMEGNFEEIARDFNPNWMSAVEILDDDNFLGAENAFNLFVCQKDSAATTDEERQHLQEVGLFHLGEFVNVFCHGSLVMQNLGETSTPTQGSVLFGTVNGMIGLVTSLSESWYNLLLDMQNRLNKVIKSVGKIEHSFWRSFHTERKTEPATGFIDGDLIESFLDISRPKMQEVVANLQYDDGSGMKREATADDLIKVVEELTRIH
T1 sequence (Q96SW2 whole entry): as the sequence (Q96SW2 whole entry) above

| SMILES | DC50 (GSPT1) | IC50 [3] | EC50 [1] | EC50 [2] |
| --- | --- | --- | --- | --- |
| O=C1CCC(N2Cc3ccc(CNC(=O)Nc4ccccc4Cl)cc3C2=O)C(=O)N1 (stereo not shown) [Compound 4] | > 300 nM | 483 nM | > 10000 nM | > 2000 nM |
| COc1ccccc1NC(=O)NCc1ccc2c(c1)C(=O)N(C1CCC(=O)NC1=O)C2 (stereo not shown) [Compound 7] | > 300 nM | 324 nM | > 10000 nM | > 2000 nM |
| CC(C)(C)NC(=O)NCc1ccc2c(c1)C(=O)N(C1CCC(=O)NC1=O)C2 (stereo not shown) [Compound 10] | > 300 nM | 763 nM | > 10000 nM | > 2000 nM |
| CC(C)(C)c1ccccc1NC(=O)NCc1ccc2c(c1)C(=O)N(C1CCC(=O)NC1=O)C2 (stereo not shown) [Compound 11] | > 300 nM | 1230 nM | > 10000 nM | > 2000 nM |
| CC(C)NC(=O)NCc1ccc2c(c1)C(=O)N(C1CCC(=O)NC1=O)C2 (stereo not shown) [Compound 12] | > 300 nM | 960 nM | > 10000 nM | > 2000 nM |
| CCCCCCNC(=O)NCc1ccc2c(c1)C(=O)N(C1CCC(=O)NC1=O)C2 (stereo not shown) [Compound 13] | > 300 nM | 944 nM | > 10000 nM | > 2000 nM |
| CCCNC(=O)NCc1ccc2c(c1)C(=O)N(C1CCC(=O)NC1=O)C2 (stereo not shown) [Compound 14] | > 300 nM | 1420 nM | > 10000 nM | > 2000 nM |
| CCNC(=O)NCc1ccc2c(c1)C(=O)N(C1CCC(=O)NC1=O)C2 (stereo not shown) [Compound 15] | > 300 nM | 902 nM | > 10000 nM | > 2000 nM |
| COc1ccc(C)cc1NC(=O)NCc1ccc2c(c1)C(=O)N(C1CCC(=O)NC1=O)C2 (stereo not shown) [Compound 17] | > 300 nM | 514 nM | > 10000 nM | > 2000 nM |
| Cc1c(Cl)cccc1NC(=O)NCc1ccc2c(c1)C(=O)N(C1CCC(=O)NC1=O)C2 (stereo not shown) [Compound 19] | > 300 nM | 576 nM | > 10000 nM | > 2000 nM |
| COc1cc(C)c(Cl)cc1NC(=O)NCc1ccc2c(c1)C(=O)N(C1CCC(=O)NC1=O)C2 (stereo not shown) [Compound 76] | ≤ 100 nM | 281 nM | > 10000 nM |  |
| Cc1cc(Cl)c(NC(=O)NCc2ccc3c(c2)C(=O)N(C2CCC(=O)NC2=O)C3)cc1Cl (stereo not shown) [Compound 78] | ≤ 100 nM | 725 nM | > 10000 nM |  |
| CN1CCC(Oc2cc(Cl)cc(NC(=O)NCc3ccc4c(c3)C(=O)N(C3CCC(=O)NC3=O)C4)c2)C1 (stereo not shown) [Compound 162] | > 300 nM | 699 nM |  |  |
| O=C1CCC(N2Cc3ccc(CNC(=O)Nc4cc(OC(F)(F)F)ccn4)cc3C2=O)C(=O)N1 (stereo not shown) [Compound 164] | > 300 nM | 1600 nM |  |  |
| O=C1CCC(N2Cc3ccc(CNC(=O)Nc4cc(F)cc(OC(F)(F)F)c4)cc3C2=O)C(=O)N1 (stereo not shown) [Compound 165] | > 300 nM | 1630 nM |  |  |

Further lines, with some results ahead:

| DC50 (GSPT1) | IC50 [3] | SMILES | EC50 [1] | EC50 [2] |
| --- | --- | --- | --- | --- |
| > 300 nM | 1040 nM | O=C1CCC(N2Cc3ccc(CNC(=O)Nc4ccccc4)cc3C2=O)C(=O)N1 (stereo not shown) [Compound 1] | > 10000 nM | > 2000 nM |
| > 300 nM | 254 nM | O=C1CCC(N2Cc3ccc(CNC(=O)Nc4ccc(Cl)cc4)cc3C2=O)C(=O)N1 (stereo not shown) [Compound 2] | > 10000 nM | > 2000 nM |
| > 300 nM | 400 nM | O=C1CCC(N2Cc3ccc(CNC(=O)Nc4cccc(Cl)c4)cc3C2=O)C(=O)N1 (stereo not shown) [Compound 3] | > 10000 nM | > 2000 nM |
| > 300 nM | 339 nM | COc1ccc(NC(=O)NCc2ccc3c(c2)C(=O)N(C2CCC(=O)NC2=O)C3)cc1 (stereo not shown) [Compound 5] | > 10000 nM | > 2000 nM |
| > 300 nM | 467 nM | COc1cccc(NC(=O)NCc2ccc3c(c2)C(=O)N(C2CCC(=O)NC2=O)C3)c1 (stereo not shown) [Compound 6] | > 10000 nM | > 2000 nM |
| > 300 nM | 817 nM | CCOc1ccc(NC(=O)NCc2ccc3c(c2)C(=O)N(C2CCC(=O)NC2=O)C3)cc1 (stereo not shown) [Compound 16] | > 10000 nM | > 2000 nM |
| > 300 nM | 552 nM | CCc1ccc(NC(=O)NCc2ccc3c(c2)C(=O)N(C2CCC(=O)NC2=O)C3)cc1 (stereo not shown) [Compound 18] | > 10000 nM | > 2000 nM |
| ≤ 100 nM | 570 nM | O=C1CCC(N2Cc3ccc(CNC(=O)Nc4ccc(OC(F)(F)F)cc4)cc3C2=O)C(=O)N1 (stereo not shown) [Compound 77] | > 10000 nM |  |
| ≤ 100 nM | 1470 nM | CC(C)(C)c1ccc(NC(=O)NCc2ccc3c(c2)C(=O)N(C2CCC(=O)NC2=O)C3)cn1 (stereo not shown) [Compound 163] |  |  |
